Laboratory results: patent US9682961B2, “Quinazoline derivative” (CARNA BIOSCIENCES, INC., priority 2013, dated 2017)

Tests used:
c-MYC gene expression = test: Expression level of Wnt/β-catenin target gene c-MYC by real-time PCR in HCT116 cells; assay type: cell-based, human; settings: 10 and 3 μM, 24 hours
Method: Effects of the compound of the present invention on Wnt/β-catenin signaling activity were studied using the real-time PCR method as well as using as an indicator changes in expression levels of target genes of the Wnt/β-catenin signaling pathway. To a RPMI 1640 medium (NACALAI TESQUE, INC.), 10% FBS (AusGeneX PTY LTD.) and 1% Penicillin/Streptomycin (NACALAI TESQUE, INC.) were added to prepare a cell culture medium (hereinafter referred to as medium 1). In a T75 flask, HCT116 cells (ATCC No. CCL-247) were added to the medium 1. The cells in the flask were cultured in the 5% CO2 incubator. The cultured HCT116 cells were diluted with the medium 1 so as to have a cell concentration of 1.1×10^5 cells/mL. Into the T75 flask, 13.5 mL of the diluted cells was seeded, followed by culturing overnight in the 5% CO2 incubator. […] Total RNA concentration was measured by a microspectrophotometer (Thermo Fisher Scientific Inc., Nano Drop ND-1000). […] The results were calculated as the expression ratio of the target gene to the endogenous control gene (β-Actin) by the comparative Ct method using a DMSO group as a reference.

AXIN2 protein expression = test: Expression level of Wnt/β-catenin target protein AXIN2 by western blotting in HCT116 cells; assay type: cell-based; settings: Homo sapiens, 24 hours, read-out: Inhibition rate (%) AXIN2 protein
Method: Expression levels of target proteins of the Wnt/β-catenin signaling pathway was analyzed by western blotting method, and effects of the compound of the present invention on Wnt/β-catenin signaling activity were studied by using a change of these levels as an indicator. HCT116 cells cultured in the same manner as in Test Example 2 were diluted with the medium 1 so as to have a cell concentration of 5×10^5 cells/mL, and 5 mL of the diluted cells were seeded into T25 flasks, followed by culturing overnight in the 5% CO2 incubator. Next day, solutions of the compound to be tested obtained by diluting 10 and 3 mM DMSO stock solutions of the compound to be tested 100-fold with the medium 1 were added to each flask so that the amount of the solution in the flask was one tenth of the amount of the final solution (final concentrations of the compound to be tested: 10 and 3 μM). […] Supernatant was recovered by centrifugal operation (15,000 rpm, 10 min.) and amounts of proteins were determined. […] Thereafter, using a CCD camera (GE Healthcare Co., ImageQuant LAS 500), the respective bands were detected by chemiluminescence. The detected bands were quantified by densitometry (GE Healthcare Co., ImageQuant TL v8.1.0.0). Inhibition rates were calculated from the intensities of the bands in the respective groups, with the luminescence of the band of the DMSO added group being 100%. […]

O[C@H]1CC[C@@H](Oc2cccc3cnc(Nc4ccc5nc[nH]c5c4)nc23)CC1 [Example 1, cis-4-({2-[(1H-benzo[d]imidazol-6-yl)amino]quinazolyn-8-yl}oxy)cyclohexanol]
c-MYC gene expression (c-MYC gene expression): inhibited the expression of AXIN2 and c-MYC | inhibition at 3 µM (AXIN2 protein expression; HCT-116, 3 μM): 46.1% | inhibition at 10 µM (AXIN2 protein expression; HCT-116, 10 μM): 66.9%
